Data taken from US20040076974A1, “Liver necrosis predictive genes” (priority 2002, published 2004).
“And” between values parts separate entries of the source, which are not always exact repeats. Identical values can stand only once. Like-named read-outs stand apart in the source and are kept apart here.

What was measured:
[1] = tested on: toxicologically relevant rat genes (rat CT array)
Sprague Dawley rats = tested on: Sprague Dawley rats
In short: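 Toxicity calls (necrosis present or absent at 72 h) and histopathology scores were correlated with tissue gene expression from Crl:CD Sprague Dawley rats. Animals, usually 3 treated with compound by i.p. route and 3 given vehicle, were killed at 6, 24 or 72 h and tissues frozen immediately in liquid nitrogen.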

[2] = 24 h, treatment/control, dose 2, listed as CHEX

## C[C@@H]1C[C@@H]([C@H](O)CC2CC(=O)NC(=O)C2)C(=O)[C@@H](C)C1 [cycloheximide]
[1]; 24 h
  Aflatoxin B1 aldehyde reductase expression: 0.3081 and 0.5569
[1]; [2]
  3-hydroxyisobutyrate dehydrogenase expression: 0.7822 and 0.6854
  14-3-3 zeta expression: 1.308 and 1.217
  17-beta hydroxysteroid dehydrogenase, type 2 expression: 0.8086 and 0.8289
  60S ribosomal protein L6 expression: 4.046 and 3.164
  ATPase inhibitor (rat mitochondrial IF1 protein) expression: 1.104
  Alpha 1 - inhibitor III expression: 0.1985 and 0.3033
  Alpha-2-macroglobulin expression: 8.537 and 10.8864
  Bax (alpha) expression: 3.909 and 3.079
  Beta-actin expression: 1.582
  Calpactin I heavy chain expression: 1.21 and 1.278
  Carbamyl phosphate synthetase I expression: 2.339 and 1.425
  Carbonic anhydrase III expression: 0.09817 and 0.117
  Cathepsin L, sequence 2 expression: 3.293 and 1.752
  Dynamin-1 (D100) expression: 0.7964 and 0.6968
  Epidermal growth factor expression: 0.7851 and 0.8391
  Equilbrative nitrobenzylthioinosine-sensitive nucleoside transporter expression: 0.434 and 0.4974
  Fas antigen expression: 1.655 and 1.544
  Gadd45 expression: 1.068 and 0.9225
  Gadd153 expression: 2.348 and 2.179
  Gamma-actin, cytoplasmic expression: 2.831 and 2.8
  Glucose-regulated protein 78 expression: 1.943
  Hepatic lipase expression: 0.425 and 0.4085
  ID-1 expression: 1.831 and 1.476
  Insulin-like growth factor I expression: 0.632 and 0.7238
  Insulin-like growth factor binding protein 1 expression: 1.891
  Insulin-like growth factor binding protein 3 expression: 0.6015 and 0.8706
  Integrin beta1 expression: 1.973 and 1.549
  L-gulono-gamma-lactone oxidase expression: 0.1815 and 0.3251
  Matrin F/G expression: 0.6684 and 0.8266
  Monocyte chemotactic protein receptor (CCR2) expression: 1.356
  Organic anion transporter 3 expression: 0.6196 and 0.8226
  Organic cation transporter 3 expression: 3.288 and 2.799
  Ornithine decarboxylase expression: 1.809 and 2.529
  PAR interacting protein expression: 2.494 and 1.775
  Phase-1 RCT 252 expression: 2.109
  Phase-1 RCT-15 expression: 2.098
  Phase-1 RCT-36 expression: 0.9535
  Phase-1 RCT-38 expression: 0.8074 and 1.436
  Phase-1 RCT-40 expression: 0.5868 and 0.6253
  Phase-1 RCT-48 expression: 0.8259
  Phase-1 RCT-50 expression: 3.394 and 1.867
  Phase-1 RCT-78 expression: 0.6678 and 0.6463
  Phase-1 RCT-83 expression: 0.7709 and 0.5883
  Phase-1 RCT-88 expression: 0.5622 and 0.699
  Phase-1 RCT-89 expression: 0.3912 and 0.666
  Phase-1 RCT-92 expression: 0.5483 and 0.6236
  Phase-1 RCT-102 expression: 0.1629 and 0.3219
  Phase-1 RCT-117 expression: 0.5435 and 0.8114
  Phase-1 RCT-128 expression: 0.7358 and 0.5601
  Phase-1 RCT-137 expression: 0.897
  Phase-1 RCT-144 expression: 1.698 and 1.552
  Phase-1 RCT-145 expression: 1.962 and 1.531
  Phase-1 RCT-152 expression: 3.068 and 2.149
  Phase-1 RCT-179 expression: 1.874 and 1.726
  Phase-1 RCT-180 expression: 1.992 and 1.731
  Phase-1 RCT-182 expression: 0.648 and 0.4739
  Phase-1 RCT-189 expression: 0.7556 and 0.7413
  Phase-1 RCT-207 expression: 3.54 and 2.206
  Phase-1 RCT-213 expression: 2.298 and 1.558
  Phase-1 RCT-241 expression: 2.805 and 1.626
  Phase-1 RCT-256 expression: 0.7478
  Phase-1 RCT-264 expression: 0.3258 and 0.288
  Phase-1 RCT-270 expression: 0.3824 and 0.3779
  Phase-1 RCT-271 expression: 0.6863 and 0.7351
  Phase-1 RCT-288 expression: 0.7066 and 0.6813
  Phase-1 RCT-291 expression: 0.9117
  Phase-1 RCT-295 expression: 1.809 and 1.772
  Phase-1 RCT-296 expression: 0.1325 and 0.1028
  Ribosomal protein L13A expression: 3.222 and 2.597
  Ribosomal protein S17 expression: 3.701 and 3.311
  Sodium/bile acid cotransporter expression: 0.2803 and 0.3733
  Transthyretin expression: 0.3341 and 0.2879
  Ubiquitin conjugating enzyme (RAD 6 homologue) expression: 1.788 and 1.624
  c-jun expression: 1.591 and 1.111
  c-myc expression: 1.683 and 1.143
[1]; rat, in vivo
  Paraoxonase 1 expression: 0.4607 and 0.4822
Sprague Dawley rats; 72 h, dose 0.5
  Liver Toxicity Necrosis Classification: no
Sprague Dawley rats; 72 h; dose 2; animals 2257-2259
  Liver Toxicity Necrosis Classification: no
Sprague Dawley rats; compound-dose group CHEX 0.5; at 72 h
  Liver Toxicity Necrosis Classification: no
Sprague Dawley rats; compound-dose group CHEX 2; at 72 h
  Liver Toxicity Necrosis Classification: no
Sprague Dawley rats; compound-dose group at 72 h, dose 0.5
  Liver Toxicity Necrosis Classification: no
Sprague Dawley rats; compound-dose group at 72 h, dose 2
  Liver Toxicity Necrosis Classification: no
Sprague Dawley rats; compound-dose group at 72 h; dose 2
  Liver Toxicity Necrosis Classification: no
Sprague Dawley rats; rat, intraperitoneal, dose 0.5 mg/kg, 72 hours after treatment
  Liver Necrosis: no
Sprague Dawley rats; rat, intraperitoneal, dose 0.5 mg/kg, 72 hours; 1 = not remarkable, 2 and higher increasing severity
  Score (histopathology liver necrosis severity score): 1
Sprague Dawley rats; rat, intraperitoneal, dose 2 mg/kg, 72 hours after treatment
  Liver Necrosis: no
Sprague Dawley rats; rat, intraperitoneal, dose 2 mg/kg, 72 hours; 1 = not remarkable, 2 and higher increasing severity
  Score (histopathology liver necrosis severity score): 1
